Data: US9163020B2, “Azaindole compounds, synthesis thereof, and methods of using the same” (Global Alliance for TB Drug Development, priority 2013, dated 2015)
Values after ≈ are worked out from the molar mass of the structure shown. Read-outs that look alike come from different tables or passages of the source.

How the values were obtained:
[1] = test system: Mtb DprE1 C387G; format: cell-based, Mycobacterium tuberculosis
[2] = test system: Mycobacterium tuberculosis (Mtb) H37Rv ATCC 27294; test: microbe, parasite or virus in culture; format: cell-based; conditions: read-out: MIC, Mtb H37Rv
[3] = test system: Mtb DprE1 OE; test: microbe, parasite or virus in culture; format: cell-based, Mycobacterium tuberculosis
[4] = test system: Mtb DprE1 Y314H; format: cell-based, Mycobacterium tuberculosis
[5] = test system: Mtb DprE1 C387S; format: cell-based, Mycobacterium tuberculosis
[6] = Mycobacterium tuberculosis, DPRE1OE, read-out: MIC, Mtb DprE1 OE
[7] = Mycobacterium tuberculosis, DPRE1OE, Table 5, read-out: Mtb DprE1 OE MIC

| Molecule | MIC, Mtb DprE1 C387G [1] | MIC ([2]; Mycobacterium tuberculosis) | MIC [3, 6] | MIC, Mtb DprE1 Y314H [4] | MIC, Mtb DprE1 C387S [5] | MIC [2] | MIC ([3]; read-out: MIC, Mtb DprE1 OE) | Mtb DprE1 C387G MIC [1] | MIC [3, 7] | Mtb DprE1 Y314H MIC [4] | Mtb DprE1 C387S [5] | cross-resistance to mutant strain (Tyr314His) [4] |
| --- | --- | --- | --- | --- | --- | --- | --- | --- | --- | --- | --- | --- |
| COc1ncnc(Cn2cc(C(=O)NCCO)c3ncc(C)cc32)c1C [Compound 17, N-(2-hydroxyethyl)-1-((6-methoxy-5-methylpyrimidin-4-yl)methyl)-6-methyl-1H-pyrrolo[3,2-b]pyridine-3-carboxamide] | 0.78 µM (≈ 0.277 µg/mL) | 1.56 µM (≈ 0.554 µg/mL) | 100 µM (≈ 35.5 µg/mL) | >200 µM | 0.39 µM (≈ 0.139 µg/mL) |  |  |  |  |  |  |  |
| CC1COc2c(N3CCN(C)CC3)c(F)cc3c(=O)c(C(=O)O)cn1c23 (centres unmarked) [Ofloxacin, reference compound] |  | 1 µM (≈ 0.361 µg/mL) | 0.5 µM (≈ 0.181 µg/mL) |  |  |  |  |  |  |  |  |  |
| CO[C@H]1/C=C/O[C@@]2(C)Oc3c(C)c(O)c4c(O)c(c(/C=N/N5CCN(C)CC5)c(O)c4c3C2=O)NC(=O)/C(C)=C\C=C\[C@H](C)[C@H](O)[C@@H](C)[C@@H](O)[C@@H](C)[C@H](OC(C)=O)[C@@H]1C [Rifampicin] |  |  | 0.003 µM (≈ 0.00247 µg/mL) |  |  |  |  |  |  |  |  |  |
| D-cycloserine | 8 µM |  |  | 8.0 to 16.0 µM | 8 µM | 8 µM | 8 µM |  |  |  |  |  |
| COc1nc2ccc(Br)cc2cc1[C@@H](c1ccccc1)[C@@](O)(CCN(C)C)c1cccc2ccccc12 [TMC207] | 0.15 µM (≈ 0.0833 µg/mL) | 0.6 µM (≈ 0.333 µg/mL) | 0.15 µM (≈ 0.0833 µg/mL) | 0.15 to 0.3 µM | 0.3 µM (≈ 0.167 µg/mL) |  |  |  |  |  |  |  |
| COc1c(N2C[C@@H]3CCCN[C@@H]3C2)c(F)cc2c(=O)c(C(=O)O)cn(C3CC3)c12 [Moxifloxacin, reference compound] |  | 0.125 µM (≈ 0.0502 µg/mL) | 0.06 µM (≈ 0.0241 µg/mL) |  |  |  |  |  |  |  |  |  |
| CC[C@@H](CO)NCCN[C@@H](CC)CO [Ethambutol] | 4 µM (≈ 0.817 µg/mL) | 2 µM (≈ 0.409 µg/mL) | 2 µM (≈ 0.409 µg/mL) | 2.0 to 4.0 µM | 2 µM (≈ 0.409 µg/mL) |  |  |  |  |  |  |  |
| Cc1ccc(Cn2cc(C(=O)NCCF)c3ncccc32)c(C)c1 [Compound 31, 1-(2,4-dimethylbenzyl)-N-(2-fluoroethyl)-1H-pyrrolo[3,2-b]pyridine-3-carboxamide] |  |  |  |  |  |  |  | 0.78 µM | 25 µM (≈ 8.13 µg/mL) | 25 µM | 0.78 µM |  |
| Clofazimine | 0.03 µM |  |  | 0.125 µM | 0.03 µM | 0.125 µM | 0.06 µM |  |  |  |  |  |
| COc1ncnc(Cn2cc(C(=O)NCCF)c3ncc(C)cc32)c1C [Compound 8, N-(2-fluoroethyl)-1-((6-methoxy-5-methylpyrimidin-4-yl)methyl)-6-methyl-1H-pyrrolo[3,2-b]pyridine-3-carboxamide] | 0.39 µM (≈ 0.139 µg/mL) | 0.39 µM (≈ 0.139 µg/mL) | 6.25 µM (≈ 2.23 µg/mL) | >200 µM | 0.39 µM (≈ 0.139 µg/mL) |  |  |  |  |  |  |  |
| NNC(=O)c1ccncc1 [Isoniazid] | 0.06 µM (≈ 0.00823 µg/mL) | 0.06 µM (≈ 0.00823 µg/mL) | 0.03 µM (≈ 0.00411 µg/mL) | 0.06 µM (≈ 0.00823 µg/mL) | 0.06 µM (≈ 0.00823 µg/mL) |  |  |  |  |  |  |  |
| C[C@H]1COC2(CCN(c3nc(=O)c4cc(C(F)(F)F)cc([N+](=O)[O-])c4s3)CC2)O1 [BTZ043] | >0.1 µM |  | 50 µM (≈ 21.6 µg/mL) | 0.0015 to 0.003 µM | >0.1 µM | 0.003 µM (≈ 0.00129 µg/mL) |  |  |  |  |  | resistance was not observed |
| COc1cccc(F)c1Cn1cc(C(=O)NCC2CC2)c2ncccc21 [Compound 32, N-(cyclopropylmethyl)-1-(2-fluoro-6-methoxybenzyl)-1H-pyrrolo[3,2-b]pyridine-3-carboxamide] |  |  |  |  |  |  |  | 0.39 µM | 50 µM (≈ 17.7 µg/mL) | 200 µM | 0.39 µM |  |
| COc1ncnc(Cn2cc(C(=O)NCCF)c3ncccc32)c1C [Compound 3, N-(2-fluoroethyl)-1-((6-methoxy-5-methylpyrimidin-4-yl)methyl)-1H-pyrrolo[3,2-b]pyridine-3-carboxamide] | 0.78 µM (≈ 0.268 µg/mL) |  | 50 µM (≈ 17.2 µg/mL) | >100 µM | 3.12 µM (≈ 1.07 µg/mL) | 3.12 µM (≈ 1.07 µg/mL) |  |  |  |  |  |  |
